Laboratory results from patent US20240059671A1, “TYROSINE KINASE 2 (TYK2) DEGRADATION COMPOUNDS AND METHODS OF USE” (CULLGEN (SHANGHAI), INC., priority 2020, published 2024).

Molecular target: TYK2 (Homo sapiens, UniProt P29597)
Assay: TYK2 protein degradation in NOMO-1 cells by immunoblotting
Assay type: cell-based
Design: endogenous in cells
Settings: NOMO-1 cells
Method in brief: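 NOMO-1 cells in RPMI 1640 with 10% FBS were exposed to compound at 0.1–1000 nM for 16 hours. TYK2 levels in RIPA lysates were measured by SDS-PAGE immunoblot with chemiluminescent detection and band densitometry.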

TYK2, sequence (P29597 whole entry): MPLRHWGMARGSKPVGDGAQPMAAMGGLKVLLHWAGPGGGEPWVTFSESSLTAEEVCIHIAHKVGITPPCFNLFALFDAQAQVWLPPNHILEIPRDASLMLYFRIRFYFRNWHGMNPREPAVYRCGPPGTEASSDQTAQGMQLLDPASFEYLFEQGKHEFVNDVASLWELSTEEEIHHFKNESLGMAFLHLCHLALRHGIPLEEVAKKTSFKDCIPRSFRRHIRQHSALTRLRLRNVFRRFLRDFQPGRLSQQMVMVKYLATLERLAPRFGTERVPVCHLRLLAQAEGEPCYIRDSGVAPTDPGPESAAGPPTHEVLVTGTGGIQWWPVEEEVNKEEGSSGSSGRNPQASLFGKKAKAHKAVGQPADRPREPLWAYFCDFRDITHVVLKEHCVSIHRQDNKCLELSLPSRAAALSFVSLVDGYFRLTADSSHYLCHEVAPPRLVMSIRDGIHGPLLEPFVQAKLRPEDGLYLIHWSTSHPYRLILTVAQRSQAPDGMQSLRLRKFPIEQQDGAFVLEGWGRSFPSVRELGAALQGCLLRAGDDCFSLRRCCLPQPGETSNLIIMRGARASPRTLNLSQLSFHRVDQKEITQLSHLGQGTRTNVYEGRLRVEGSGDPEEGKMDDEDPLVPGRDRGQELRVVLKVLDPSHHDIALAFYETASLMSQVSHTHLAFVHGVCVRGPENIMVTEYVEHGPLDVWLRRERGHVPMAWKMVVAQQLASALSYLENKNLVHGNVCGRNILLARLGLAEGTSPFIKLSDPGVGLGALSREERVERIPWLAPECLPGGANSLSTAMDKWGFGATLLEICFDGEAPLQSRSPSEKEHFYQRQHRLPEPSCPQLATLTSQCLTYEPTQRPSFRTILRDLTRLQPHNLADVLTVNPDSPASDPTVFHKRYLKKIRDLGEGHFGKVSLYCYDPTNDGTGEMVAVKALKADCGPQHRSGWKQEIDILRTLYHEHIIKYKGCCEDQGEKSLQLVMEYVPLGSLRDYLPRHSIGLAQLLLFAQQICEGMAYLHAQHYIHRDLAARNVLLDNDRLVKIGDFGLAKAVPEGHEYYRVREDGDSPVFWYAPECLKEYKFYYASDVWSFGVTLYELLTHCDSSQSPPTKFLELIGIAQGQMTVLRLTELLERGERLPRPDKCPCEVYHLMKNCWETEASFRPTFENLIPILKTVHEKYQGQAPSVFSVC

CNC(=O)c1nnc(Nc2ccc(C#CC3CCN(C(=O)CCCC(=O)N[C@H](C(=O)N4C[C@H](O)C[C@H]4C(=O)N[C@@H](C)c4ccc(-c5scnc5C)cc4)C(C)(C)C)CC3)cn2)cc1Nc1cccc(-c2ncn(C)n2)c1OC [CPD-134, 6-((5-((1-(5-(((S)-1-((2S,4R)-4-hydroxy-2-(((S)-1-(4-(4-methylthiazol-5-yl)phenyl)ethyl)carbamoyl)pyrrolidin-1-yl)-3,3-dimethyl-1-oxobutan-2-yl)amino)-5-oxopentanoyl)piperidin-4-yl)ethynyl)pyridin-2-yl)amino)-4-((2-methoxy-3-(1-methyl-1H-1,2,4-triazol-3-yl)phenyl)amino)-N-methylpyridazine-3-carboxamide]
TYK2 Degradation (NOMO-1, 10 nM): A (A: ≥60% TYK2 degradation) | TYK2 Degradation (NOMO-1, 100 nM): A (A: ≥60% TYK2 degradation)

CNC(=O)c1nnc(Nc2ccc(C(=O)NCCCCCCCCNc3ccc4c(c3)C(=O)N(C3CCC(=O)NC3=O)C4=O)cn2)cc1Nc1cccc(-c2ncn(C)n2)c1OC (stereo not shown) [CPD-167, 6-((5-((8-((2-(2,6-dioxopiperidin-3-yl)-1,3-dioxoisoindolin-5-yl)amino)octyl)carbamoyl)pyridin-2-yl)amino)-4-((2-methoxy-3-(1-methyl-1H-1,2,4-triazol-3-yl)phenyl)amino)-N-methylpyridazine-3-carboxamide]
TYK2 Degradation (NOMO-1, 10 nM): A (A: ≥60% TYK2 degradation) | TYK2 Degradation (NOMO-1, 100 nM): C (C: ≤20% TYK2 degradation)

CNC(=O)c1nnc(Nc2ccc(C(=O)NCCNc3ccc4c(c3)C(=O)N(C3CCC(=O)NC3=O)C4=O)cn2)cc1Nc1cccc(-c2ncn(C)n2)c1OC (stereo not shown) [CDD-176, 6-((5-((2-((2-(2,6-dioxopiperidin-3-yl)-1,3-dioxoisoindolin-5-yl)amino)ethyl)carbamoyl)pyridin-2-yl)amino)-4-((2-methoxy-3-(1-methyl-1H-1,2,4-triazol-3-yl)phenyl)amino)-N-methylpyridazine-3-carboxamide]
TYK2 Degradation (NOMO-1, 10 nM): C (C: ≤20% TYK2 degradation) | TYK2 Degradation (NOMO-1, 100 nM): C (C: ≤20% TYK2 degradation)

CNC(=O)c1nnc(Nc2ccc(C#CC3CN(C(=O)CCC(=O)N[C@H](C(=O)N4C[C@H](O)C[C@H]4C(=O)N[C@@H](C)c4ccc(-c5scnc5C)cc4)C(C)(C)C)C3)cn2)cc1Nc1cccc(-c2ncn(C)n2)c1OC [CPD-122, 6-((5-((1-(4-(((S)-1-((2S,4R)-4-Hydroxy-2-(((S)-1-(4-(4-methylthiazol-5-yl)phenyl)ethyl)carbamoyl)pyrrolidin-1-yl)-3,3-dimethyl-1-oxobutan-2-yl)amino)-4-oxobutanoyl)azetidin-3-yl)ethynyl)pyridin-2-yl)amino)-4-((2-methoxy-3-(1-methyl-1H-1,2,4-triazol-3-yl)phenyl)amino)-N-methylpyridazine-3-carboxamide]
TYK2 Degradation (NOMO-1, 100 nM): C (C: ≤20% TYK2 degradation)

CNC(=O)c1nnc(Nc2ccc(C(=O)NCCCNc3ccc4c(c3)C(=O)N(C3CCC(=O)NC3=O)C4=O)cn2)cc1Nc1cccc(-c2ncn(C)n2)c1OC (stereo not shown) [CDD-175, 6-((5-((3-((2-(2,6-dioxopiperidin-3-yl)-1,3-dioxoisoindolin-5-yl)amino)propyl)carbamoyl)pyridin-2-yl)amino)-4-((2-methoxy-3-(1-methyl-1H-1,2,4-triazol-3-yl)phenyl)amino)-N-methylpyridazine-3-carboxamide]
TYK2 Degradation (NOMO-1, 10 nM): A (A: ≥60% TYK2 degradation) | TYK2 Degradation (NOMO-1, 100 nM): A (A: ≥60% TYK2 degradation)

CNC(=O)c1nnc(Nc2ccc(C#CC3CCN(C(=O)CCCCCC(=O)N[C@H](C(=O)N4C[C@H](O)C[C@H]4C(=O)N[C@@H](C)c4ccc(-c5scnc5C)cc4)C(C)(C)C)CC3)cn2)cc1Nc1cccc(-c2ncn(C)n2)c1OC [CPD-118, 6-((5-((1-(7-(((S)-1-((2S,4R)-4-Hydroxy-2-(((S)-1-(4-(4-methylthiazol-5-yl)phenyl)ethyl)carbamoyl)pyrrolidin-1-yl)-3,3-dimethyl-1-oxobutan-2-yl)amino)-7-oxoheptanoyl)piperidin-4-yl)ethynyl)pyridin-2-yl)amino)-4-((2-methoxy-3-(1-methyl-1H-1,2,4-triazol-3-yl)phenyl)amino)-N-methylpyridazine-3-carboxamide]
TYK2 Degradation (NOMO-1, 10 nM): B (B: <60% TYK2 degradation, and >20% TYK2 degradation) | TYK2 Degradation (NOMO-1, 100 nM): A (A: ≥60% TYK2 degradation)

CNC(=O)c1nnc(Nc2ccc(C#CC3CN(C(=O)CCCCC(=O)N[C@H](C(=O)N4C[C@H](O)C[C@H]4C(=O)N[C@@H](C)c4ccc(-c5scnc5C)cc4)C(C)(C)C)C3)cn2)cc1Nc1cccc(-c2ncn(C)n2)c1OC [CPD-123, 6-((5-((1-(6-(((S)-1-((2S,4R)-4-Hydroxy-2-(((S)-1-(4-(4-methylthiazol-5-yl)phenyl)ethyl)carbamoyl)pyrrolidin-1-yl)-3,3-dimethyl-1-oxobutan-2-yl)amino)-6-oxohexanoyl)azetidin-3-yl)ethynyl)pyridin-2-yl)amino)-4-((2-methoxy-3-(1-methyl-1H-1,2,4-triazol-3-yl)phenyl)amino)-N-methylpyridazine-3-carboxamide]
TYK2 Degradation (NOMO-1, 10 nM): B (B: <60% TYK2 degradation, and >20% TYK2 degradation) | TYK2 Degradation (NOMO-1, 100 nM): A (A: ≥60% TYK2 degradation)

CNC(=O)c1nnc(Nc2ccc(C#CC3CN(C(=O)CCCCCCCC(=O)N[C@H](C(=O)N4C[C@H](O)C[C@H]4C(=O)N[C@@H](C)c4ccc(-c5scnc5C)cc4)C(C)(C)C)C3)cn2)cc1Nc1cccc(-c2ncn(C)n2)c1OC [CPD-126, 6-((5-((1-(9-(((S)-1-((2S,4R)-4-hydroxy-2-(((S)-1-(4-(4-methylthiazol-5-yl)phenyl)ethyl)carbamoyl)pyrrolidin-1-yl)-3,3-dimethyl-1-oxobutan-2-yl)amino)-9-oxononanoyl)azetidin-3-yl)ethynyl)pyridin-2-yl)amino)-4-((2-methoxy-3-(1-methyl-H-1,2,4-triazol-3-yl)phenyl)amino)-N-methylpyridazine-3-carboxamide]
TYK2 Degradation (NOMO-1, 10 nM): A (A: ≥60% TYK2 degradation) | TYK2 Degradation (NOMO-1, 100 nM): A (A: ≥60% TYK2 degradation)

CNC(=O)c1nnc(Nc2ccc(C(=O)NCCCC(=O)N[C@H](C(=O)N3C[C@H](O)C[C@H]3C(=O)N[C@@H](C)c3ccc(-c4scnc4C)cc3)C(C)(C)C)cn2)cc1Nc1cccc(-c2ncn(C)n2)c1OC [CPD-139, 6-((5-((4-(((S)-1-((2S,4R)-4-Hydroxy-2-(((S)-1-(4-(4-methylthiazol-5-yl)phenyl)ethyl)carbamoyl)pyrrolidin-1-yl)-3,3-dimethyl-1-oxobutan-2-yl)amino)-4-oxobutyl)carbamoyl)pyridin-2-yl)amino)-4-((2-methoxy-3-(1-methyl-1H-1,2,4-triazol-3-yl)phenyl)amino)-N-methylpyridazine-3-carboxamide]
TYK2 Degradation (NOMO-1, 10 nM): C (C: ≤20% TYK2 degradation) | TYK2 Degradation (NOMO-1, 100 nM): A (A: ≥60% TYK2 degradation)

CNC(=O)c1nnc(Nc2ccc(C#CC3CN(C(=O)CCCCCCC(=O)N[C@H](C(=O)N4C[C@H](O)C[C@H]4C(=O)N[C@@H](C)c4ccc(-c5scnc5C)cc4)C(C)(C)C)C3)cn2)cc1Nc1cccc(-c2ncn(C)n2)c1OC [CPD-125, 6-((5-((1-(8-(((S)-1-((2S,4R)-4-hydroxy-2-(((S)-1-(4-(4-methylthiazol-5-yl)phenyl)ethyl)carbamoyl)pyrrolidin-1-yl)-3,3-dimethyl-1-oxobutan-2-yl)amino)-8-oxooctanoyl)azetidin-3-yl)ethynyl)pyridin-2-yl)amino)-4-((2-methoxy-3-(1-methyl-H-1,2,4-triazol-3-yl)phenyl)amino)-N-methylpyridazine-3-carboxamide]
TYK2 Degradation (NOMO-1, 10 nM): A (A: ≥60% TYK2 degradation) | TYK2 Degradation (NOMO-1, 100 nM): A (A: ≥60% TYK2 degradation)

CNC(=O)c1nnc(Nc2ccc(CNCCCCCCCC(=O)N[C@H](C(=O)N3C[C@H](O)C[C@H]3C(=O)N[C@@H](C)c3ccc(-c4scnc4C)cc3)C(C)(C)C)cn2)cc1Nc1cccc(-c2ncn(C)n2)c1OC [CPD-162, 6-((5-(((8-(((S)-1-((2S,4R)-4-hydroxy-2-(((S)-1-(4-(4-methylthiazol-5-yl)phenyl)ethyl)carbamoyl)pyrrolidin-1-yl)-3,3-dimethyl-1-oxobutan-2-yl)amino)-8-oxooctyl)amino)methyl)pyridin-2-yl)amino)-4-((2-methoxy-3-(1-methyl-1H-1,2,4-triazol-3-yl)phenyl)amino)-N-methylpyridazine-3-carboxamide]
TYK2 Degradation (NOMO-1, 10 nM): B (B: <60% TYK2 degradation, and >20% TYK2 degradation) | TYK2 Degradation (NOMO-1, 100 nM): A (A: ≥60% TYK2 degradation)

CNC(=O)c1nnc(Nc2ccc(C(=O)NCCCCCCCC(=O)N[C@H](C(=O)N3C[C@H](O)C[C@H]3C(=O)N[C@@H](C)c3ccc(-c4scnc4C)cc3)C(C)(C)C)cn2)cc1Nc1cccc(-c2ncn(C)n2)c1OC [CPD-143, 6-((5-((8-(((S)-1-((2S,4R)-4-hydroxy-2-(((S)-1-(4-(4-methylthiazol-5-yl)phenyl)ethyl)carbamoyl)pyrrolidin-1-yl)-3,3-dimethyl-1-oxobutan-2-yl)amino)-8-oxooctyl)carbamoyl)pyridin-2-yl)amino)-4-((2-methoxy-3-(1-methyl-1H-1,2,4-triazol-3-yl)phenyl)amino)-N-methylpyridazine-3-carboxamide]
TYK2 Degradation (NOMO-1, 10 nM): A (A: ≥60% TYK2 degradation) | TYK2 Degradation (NOMO-1, 100 nM): A (A: ≥60% TYK2 degradation)

CNC(=O)c1nnc(Nc2ccc(C#CC3CN(C(=O)CCCCCC(=O)N[C@H](C(=O)N4C[C@H](O)C[C@H]4C(=O)N[C@@H](C)c4ccc(-c5scnc5C)cc4)C(C)(C)C)C3)cn2)cc1Nc1cccc(-c2ncn(C)n2)c1OC [CPD-124, 6-((5-((1-(7-(((S)-1-((2S,4R)-4-hydroxy-2-(((S)-1-(4-(4-methylthiazol-5-yl)phenyl)ethyl)carbamoyl)pyrrolidin-1-yl)-3,3-dimethyl-1-oxobutan-2-yl)amino)-7-oxoheptanoyl)azetidin-3-yl)ethynyl)pyridin-2-yl)amino)-4-((2-methoxy-3-(1-methyl-1H-1,2,4-triazol-3-yl)phenyl)amino)-N-methylpyridazine-3-carboxamide]
TYK2 Degradation (NOMO-1, 10 nM): A (A: ≥60% TYK2 degradation) | TYK2 Degradation (NOMO-1, 100 nM): A (A: ≥60% TYK2 degradation)
